Data on 30 compounds can be found in ChEMBL document CHEMBL5104182, “Design and Synthesis of a 2-Amino-pyridine Derivative as a Potent CDK8 Inhibitor for Anti-colorectal Cancer Therapy” (J Med Chem, 2022).

Some results are limits rather than exact numbers.

In one series the test system is HCT-116. Description: Antiproliferative activity against human HCT-116 cells assessed as cell viability incubated for 48 hrs by MTT assay. Format: functional.
In another series the test system is HT-29. Description: Antiproliferative activity against human HT-29 cells assessed as cell viability incubated for 48 hrs by MTT assay. Type of series: functional.
The test system of the next series is SW480. Description: Antiproliferative activity against human SW480 cells assessed as cell viability incubated for 48 hrs by MTT assay. Format: functional.
The next series has as its system CT26. Kind of series: Antiproliferative activity against […] cells assessed as cell viability incubated for 48 hrs by MTT assay. Format: functional. To be noted: Mus musculus.
The nature of series [1]: Cytotoxicity against human GES1 cells assessed as cell viability incubated for 48 hrs by MTT assay. Format: toxicity, cell-based.
Series [2] addresses T1, Cyclin-dependent kinase 8 (Homo sapiens, UniProt P49336). Description: Inhibition of CDK8 (unknown origin) assessed as inhibition rate.
The target of series [3] is T1, Cyclin-dependent kinase 8. To be noted: dose 200.0 nM.

T1 sequence (P49336 whole entry): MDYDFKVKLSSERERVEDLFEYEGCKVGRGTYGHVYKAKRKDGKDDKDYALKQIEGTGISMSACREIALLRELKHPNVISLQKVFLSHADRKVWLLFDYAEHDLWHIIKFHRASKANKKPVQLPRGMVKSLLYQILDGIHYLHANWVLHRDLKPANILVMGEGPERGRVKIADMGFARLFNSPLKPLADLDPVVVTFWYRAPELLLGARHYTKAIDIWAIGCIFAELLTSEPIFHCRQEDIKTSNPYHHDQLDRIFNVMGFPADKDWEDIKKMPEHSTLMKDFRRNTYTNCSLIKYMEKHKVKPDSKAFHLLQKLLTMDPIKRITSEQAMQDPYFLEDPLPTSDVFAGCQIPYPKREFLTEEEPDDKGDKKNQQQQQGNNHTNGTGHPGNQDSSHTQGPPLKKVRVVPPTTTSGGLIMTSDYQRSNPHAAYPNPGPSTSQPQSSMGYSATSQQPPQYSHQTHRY

For `CC(=O)Nc1ccc(Oc2ccc(NC(=O)Nc3cccc(C(F)(F)F)c3)cc2)cn1`, the 50% growth inhibitory concentration (GI50) in the series on HCT-116 was 1.8 µM; in the series on HT-29, 8.6 µM; in the series with SW480, 18.4 µM; with CT26, 42.7 µM. The concentration for 50% growth inhibition (GI50) at 48 h in series [1] turned out to be 28.2 µM.
In the case of `Nc1ccc(Oc2cccc(NC(=O)Nc3ccc(F)c(Cl)c3)c2)cn1`, the GI50 with HCT-116 was found to be 4 µM; in the series with HT-29, 19.1 µM; in the series with SW480, 17.9 µM; in the series on CT26 it was 23.5 µM. Also, the GI50 at 48 h in series [1] worked out at 31.3 µM.
Consider `Nc1ccc(Oc2cccc(NC(=O)Nc3cccc(Cl)c3)c2)cn1`, for which the GI50 came to 29.7 µM in the series on HCT-116, 36.1 µM with HT-29, 44.2 µM with SW480 and 70.4 µM with CT26. For the same compound, in series [1], the GI50 at 48 h was above 100 µM.
As for `CNC(=O)c1cc(Oc2ccc(NC(=O)Nc3ccc(Cl)c(C(F)(F)F)c3)cc2)ccn1` [SORAFENIB], the GI50 in the series on HCT-116 was determined as 19.8 µM; with HT-29, 25.6 µM; in the series with SW480, 14.7 µM; in the series with CT26, 30.2 µM. Besides, in series [1], the GI50 at 48 h turned out to be 28.9 µM.
Regarding `Nc1ccc(Oc2cccc(NC(=O)Nc3ccc(F)c(C(F)(F)F)c3)c2)cn1`, the concentration for 50% growth inhibition (GI50) in the series on HCT-116 is 7.4 µM; in the series on HT-29, 7.7 µM; with SW480, 12.8 µM; with CT26, 25.5 µM. Also, the concentration for 50% growth inhibition (GI50) at 48 h in series [1] was 39.1 µM.
Turning to `Nc1ccc(Oc2ccc(NC(=O)Nc3cccc(Cl)c3)cc2)cn1`, the 50% growth inhibitory concentration (GI50) with HCT-116 is 12.5 µM; in the series with HT-29 it was 8.5 µM; in the series on SW480, 13.2 µM; in the series with CT26 it was above 100 µM. Moreover, the GI50 at 48 h in series [1] came to 65.5 µM.
Consider `Nc1ccc(Oc2cccc(NC(=O)Nc3ccccc3F)c2)cn1`, for which the 50% growth inhibitory concentration (GI50) came out at 34.4 µM with HCT-116, 27.5 µM in the series on HT-29, 43 µM with SW480 and 83.1 µM in the series on CT26. Besides, in series [1], the GI50 at 48 h was found to be 43.6 µM.
`O=C(Nc1ccc(Oc2cnc3[nH]ccc3c2)cc1)Nc1cccc(Cl)c1`: the GI50 was 90.1 µM with HCT-116, 41.1 µM in the series on HT-29, 30.7 µM with SW480 and 20.9 µM with CT26.
In the case of `Nc1ccc(Oc2cccc(NC(=O)Nc3cccc(C(F)(F)F)c3)c2)cn1`, the GI50 came out at 1.7 µM in the series on HCT-116, 2.5 µM with HT-29, 10.4 µM in the series on SW480 and 6.9 µM with CT26. Besides, the concentration for 50% growth inhibition (GI50) at 48 h in series [1] is above 100 µM.
As for `O=C(Nc1ccc(Oc2cnc3[nH]ccc3c2)cc1)Nc1cccc(C(F)(F)F)c1`, the concentration for 50% growth inhibition (GI50) with HT-29 came to 2.1 µM; in the series on SW480, 1.9 µM; in the series on CT26, 5.3 µM.
Regarding `Nc1ccc(Oc2ccc(NC(=O)Nc3ccc(F)c(C(F)(F)F)c3)cc2)cn1`, the GI50 came to 11.2 µM in the series with HCT-116, 8.5 µM in the series on HT-29, 15.5 µM in the series with SW480 and 7.4 µM in the series with CT26. The 50% growth inhibitory concentration (GI50) at 48 h in series [1] came to 52.5 µM.
Take `Nc1ccc(Oc2cccc(NC(=O)Nc3cccc(Br)c3)c2)cn1`: the concentration for 50% growth inhibition (GI50) is 21.3 µM with HCT-116, 50 µM with HT-29, 29.6 µM in the series with SW480 and 44.5 µM in the series on CT26. Moreover, the GI50 at 48 h in series [1] was above 100 µM.
Turning to `Nc1ccc(Oc2cccc(NC(=O)Nc3ccc(Cl)c(Cl)c3)c2)cn1`, the GI50 with HCT-116 was found to be 7.6 µM; in the series with HT-29, 30.3 µM; with SW480, 29.2 µM; in the series on CT26, 32.4 µM. The GI50 at 48 h in series [1] was above 100 µM.
As to `Nc1ccc(Oc2cccc(NC(=O)Nc3ccc(F)cc3)c2)cn1`, the GI50 was above 100 µM with HCT-116, above 100 µM in the series with HT-29, 10.9 µM in the series on SW480 and 52.3 µM in the series with CT26. In addition, the concentration for 50% growth inhibition (GI50) at 48 h in series [1] was above 100 µM.
Take `Nc1ccc(Oc2ccc(NC(=O)Nc3cccc(Br)c3)cc2)cn1`: the concentration for 50% growth inhibition (GI50) was above 100 µM in the series on HCT-116, above 100 µM with HT-29, 14 µM in the series on SW480 and 35.6 µM with CT26. For the same compound, the 50% growth inhibitory concentration (GI50) at 48 h in series [1] is above 100 µM.
Consider `O=C(Nc1ccc(Oc2cnc3[nH]ccc3c2)cc1)Nc1ccc(Cl)c(C(F)(F)F)c1`, for which the GI50 came to 2.3 µM in the series on HT-29, 1.4 µM in the series with SW480 and 8.3 µM in the series with CT26.
For `Cc1ccc(NC(=O)Nc2cccc(Oc3ccc(N)nc3)c2)cc1`, the 50% growth inhibitory concentration (GI50) was above 100 µM in the series with HCT-116, 19 µM with HT-29, above 100 µM with SW480 and above 100 µM in the series with CT26. The 50% growth inhibitory concentration (GI50) at 48 h in series [1] was above 100 µM.
For `O=C(Nc1cccc(Oc2cnc3[nH]ccc3c2)c1)Nc1cccc(C(F)(F)F)c1`, the GI50 with HCT-116 amounted to 8 µM; in the series on HT-29, 1.1 µM; in the series with SW480, 2.5 µM; with CT26 it was 8.7 µM. Also, the concentration for 50% growth inhibition (GI50) at 48 h in series [1] stood at 40.7 µM.
Regarding `Cn1cc(-c2ccc(-c3cncc(Cl)c3N3CCC4(CCNC4=O)CC3)cc2)cn1`, the IC50 in series [2] stood at 0.0385 µM. For the same compound, the concentration for 50% growth inhibition (GI50) in the series with HCT-116 turned out to be 9.6 µM; in the series on HT-29, 7.8 µM; in the series on SW480, 10.4 µM; in the series on CT26, 11.3 µM. The GI50 at 48 h in series [1] was found to be 42.7 µM. Further, in series [3], the inhibition was found to be 79%.
For the compound `Cc1cccc(NC(=O)Nc2ccc(Oc3ccc(N)nc3)cc2)c1`, the concentration for 50% growth inhibition (GI50) in the series with HCT-116 was 37.4 µM; with HT-29, 59.4 µM; in the series with SW480, 12.5 µM; in the series on CT26, above 100 µM. Moreover, the GI50 at 48 h in series [1] is above 100 µM.
For `Cc1cccc(NC(=O)Nc2cccc(Oc3ccc(N)nc3)c2)c1`, the 50% growth inhibitory concentration (GI50) with HCT-116 is 26.6 µM; in the series on HT-29 it was 41.5 µM; in the series on SW480, 66.3 µM; in the series with CT26, above 100 µM. Besides, in series [1], the GI50 at 48 h is above 100 µM.
In the case of `Cc1ccc(NC(=O)Nc2cccc(Oc3ccc(N)nc3)c2)cc1Cl`, the GI50 with HCT-116, in the series with HT-29, in the series on SW480 and in the series on CT26 was above 100 µM in each case. Besides, the GI50 at 48 h in series [1] is above 100 µM.
In the case of `O=C(Nc1cccc(Oc2cnc3[nH]ccc3c2)c1)Nc1ccc(Cl)c(C(F)(F)F)c1`, the GI50 in the series with HCT-116 is 53.2 µM; in the series with HT-29, 100 µM; in the series on SW480 it was 100 µM; in the series on CT26, above 100 µM.
Consider `Nc1ccc(Sc2ccc(NC(=O)Nc3cccc(C(F)(F)F)c3)cc2)cn1`, for which the GI50 in the series on HCT-116 was 43.6 µM; in the series with HT-29 it was 16.7 µM; in the series with SW480 it was 8.2 µM; with CT26, 10.3 µM. Also, the GI50 at 48 h in series [1] was above 100 µM.
On to `Nc1ccc(Oc2ccc(NC(=O)Nc3cccc(F)c3)cc2)cn1`, for which the concentration for 50% growth inhibition (GI50) came out at 70.9 µM with HCT-116, 49.9 µM in the series on HT-29, 45.2 µM in the series with SW480 and 66.7 µM in the series with CT26. In series [1], the concentration for 50% growth inhibition (GI50) at 48 h was above 100 µM.
Turning to `COc1cccc(NC(=O)Nc2ccc(Oc3ccc(N)nc3)cc2)c1`, the GI50 in the series on HCT-116 was 20.4 µM; in the series on HT-29, 9 µM; with SW480, 22.5 µM; with CT26 it was above 100 µM. In series [1], the GI50 at 48 h amounted to 43.2 µM.
As for `Nc1ccc(Oc2ccc(NC(=O)Nc3ccc(Cl)c(C(F)(F)F)c3)cc2)cn1`, the concentration for 50% growth inhibition (GI50) turned out to be 15.7 µM with HCT-116, 3.4 µM in the series on HT-29, 3.9 µM in the series with SW480 and 12.9 µM with CT26. Moreover, the concentration for 50% growth inhibition (GI50) at 48 h in series [1] stood at 26.8 µM.
With `Cc1ccc(NC(=O)Nc2ccc(Oc3cnc4[nH]ccc4c3)cc2)cc1C(F)(F)F`, the GI50 with HCT-116 was above 100 µM; in the series on HT-29 it was 39.8 µM; with SW480, 30.1 µM; in the series with CT26 it was 55.2 µM. For the same compound, in series [1], the GI50 at 48 h came to 24 µM.
Consider `Nc1ccc(Oc2cccc(NC(=O)Nc3ccc(Cl)c(C(F)(F)F)c3)c2)cn1`, for which the concentration for 50% growth inhibition (GI50) was found to be 9.5 µM in the series on HCT-116, 8.1 µM in the series with HT-29, 9.1 µM in the series on SW480 and 5.2 µM in the series on CT26. Besides, the concentration for 50% growth inhibition (GI50) at 48 h in series [1] amounted to 10.2 µM.
As for `Nc1ccc(Oc2ccc(NC(=O)Nc3cccc(Cl)c3Cl)cc2)cn1`, the concentration for 50% growth inhibition (GI50) worked out at 54.6 µM with HCT-116, 18.8 µM in the series on HT-29, 77.5 µM in the series on SW480 and 88.2 µM with CT26. In addition, in series [1], the GI50 at 48 h was above 100 µM.
